Here are results for ten compounds from ChEMBL document CHEMBL1201862, “PubChem BioAssay data set” (2004).

Some test systems named below: OVCAR-8; TK-10; SF-539; SNB-19; SN12C; NCI-H226; HOP-92; T47D; Malme-3M; NCI-H460; A549; ACHN; HL-60; K562; MOLT-4; 786-0; U-251; UACC-62; PC-3; Hs-578T.
What all share (test): NCI anticancer screen, dose series, 48 h

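Results reflect a 48-hour exposure of cells in 96-well plates to compound at five concentrations. The concentration for 50% growth inhibition is given as GI50.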 Active and inactive are the calls of the source. Rule as the data show it: active = GI50 up to about 1.1 µM and inactive = higher.

For `Cc1ccc2ccccc2c1CSc1nc(N)nc2c1ncn2CC(C)C`, the GI50 with OVCAR-8 was 40.4 µM (inactive); in the test with TK-10, 29.6 µM (inactive); with SF-539 it was 7.78 µM (inactive); with SNB-19 it was 48.3 µM (inactive); in the test with SN12C it was 40 µM (inactive); in the test with NCI-H226 it was 7.82 µM (inactive). Further, the GI50 was 17.8 µM (inactive) with HOP-92; 5.05 µM (inactive) in the test with T47D; 9.31 µM (inactive) in the test with Malme-3M; 14.2 µM (inactive) in the test on NCI-H460; 10.9 µM (inactive) in the test on A549; 16.4 µM (inactive) in the test with ACHN. Moreover, the GI50 in the test with HL-60 is 16.2 µM (inactive); in the test with K562, 6.41 µM (inactive); with MOLT-4, 4.73 µM (inactive); in the test with 786-0, 21.4 µM (inactive); in the test with U-251, 18.2 µM (inactive); with UACC-62, 26.3 µM (inactive). For the same compound, the values for the GI50 in the test with PC-3 and with Hs-578T were 13.9 µM (inactive) and > 35.2 µM (inactive), respectively.
Consider `CC(C)c1ccccc1[S+]([O-])c1ccccc1C(C)(C)O` (stereo not given), for which the GI50 in the test with OVCAR-8 is > 100 µM (inactive); in the test with TK-10, > 100 µM (inactive); in the test on SF-539, > 100 µM (inactive); in the test with SNB-19, 37.3 µM (inactive); with SN12C it was > 100 µM (inactive); in the test with NCI-H226, 21.3 µM (inactive). For the same compound, the GI50 in the test with HOP-92 is > 100 µM (inactive); with T47D it was > 100 µM (inactive); in the test on Malme-3M, > 100 µM (inactive); in the test on NCI-H460, 30.8 µM (inactive); with A549, 44.2 µM (inactive); in the test on ACHN it was > 100 µM (inactive). The GI50 in the test on HL-60 is 82.6 µM (inactive); in the test with K562, 60.4 µM (inactive); in the test with MOLT-4, > 100 µM (inactive); in the test on 786-0, > 100 µM (inactive); in the test on U-251, 18.9 µM (inactive); with UACC-62 it was > 100 µM (inactive). The GI50 with PC-3 was > 100 µM (inactive); in the test with Hs-578T, 50.4 µM (inactive).
Take `C[C@@H]1CC[C@@]2(NC1)O[C@H]1C[C@H]3[C@@H]4CC[C@H]5C[C@@H](O)CC[C@]5(C)[C@H]4CC[C@]3(C)[C@H]1[C@@H]2C`: the GI50 was 21.5 µM (inactive) in the test on OVCAR-8; 35.3 µM (inactive) in the test on TK-10; 25.3 µM (inactive) in the test on SF-539; 30.6 µM (inactive) in the test on SNB-19; 55.5 µM (inactive) in the test with SN12C; > 100 µM (inactive) with NCI-H226. The GI50 with HOP-92 was 93.5 µM (inactive); with T47D, > 100 µM (inactive); in the test with Malme-3M, > 100 µM (inactive); with NCI-H460, 54.3 µM (inactive); in the test with A549, > 100 µM (inactive); in the test with ACHN it was 33.6 µM (inactive). Also, the GI50 in the test with HL-60 was 21.6 µM (inactive); with K562 it was 63.1 µM (inactive); in the test with MOLT-4 it was > 100 µM (inactive); with 786-0, 31.6 µM (inactive); in the test with U-251 it was 61.2 µM (inactive); with UACC-62, 57.3 µM (inactive). Further, the GI50 was 82.4 µM (inactive) with PC-3 and 46 µM (inactive) with Hs-578T.
With `O=C(O)CCC[C@]1(O)O[C@@]2(CCCC2=O)[C@]2(O)CCC[C@@]21O`, the GI50 with OVCAR-8, with TK-10, with SF-539, with SNB-19, in the test with SN12C and with NCI-H226 was > 100 µM (inactive) each time. Also, the GI50 in the test with HOP-92, in the test with T47D, in the test with Malme-3M, in the test on NCI-H460, with A549 and with ACHN was > 100 µM (inactive) in each case. The GI50 in the test on HL-60, with K562, in the test on MOLT-4, in the test with 786-0, in the test with U-251 and with UACC-62 was > 100 µM (inactive) throughout. For the same compound, the GI50 with PC-3 and in the test on Hs-578T was > 100 µM (inactive) throughout.
`CC(C)(CCCCC(C)(C)NCC1COc2ccccc2O1)NCC1COc2ccccc2O1` (stereo not given): the GI50 in the test with OVCAR-8 was > 10 µM (inactive); in the test on TK-10, > 10 µM (inactive); in the test on SF-539 it was 1.85 µM (inactive); with SNB-19, > 10 µM (inactive); in the test with SN12C, > 10 µM (inactive); in the test on NCI-H226 it was > 10 µM (inactive). The GI50 in the test on HOP-92 is 2.19 µM (inactive); in the test with T47D, 7.83 µM (inactive); with Malme-3M, 3.15 µM (inactive); in the test on NCI-H460 it was > 10 µM (inactive); with A549 it was > 10 µM (inactive); in the test with ACHN it was > 10 µM (inactive). Moreover, the GI50 in the test with HL-60 is > 10 µM (inactive); in the test on K562 it was > 10 µM (inactive); in the test with MOLT-4, > 10 µM (inactive); in the test with 786-0, 3.25 µM (inactive); with U-251 it was 4.47 µM (inactive); in the test on UACC-62 it was 3.43 µM (inactive). The figures for the GI50 in the test with PC-3 and with Hs-578T were > 10 µM (inactive) and 5.66 µM (inactive), respectively.
Regarding `COc1ccc(/C=C(\C(=C/c2ccc(OC)cc2)[N+](=O)[O-])[N+](=O)[O-])cc1`, the GI50 in the test with OVCAR-8 was 2.03 µM (inactive); in the test with TK-10 it was 5.71 µM (inactive); with SF-539 it was 2.24 µM (inactive); with SNB-19, 10.1 µM (inactive); with SN12C it was 2.88 µM (inactive); in the test with NCI-H226, 3.97 µM (inactive). The GI50 in the test with HOP-92 was 3.84 µM (inactive); in the test on T47D it was 8.83 µM (inactive); with Malme-3M, 3.34 µM (inactive); with NCI-H460 it was 5.64 µM (inactive); in the test with A549 it was 22.7 µM (inactive); with ACHN, 5.96 µM (inactive). The GI50 in the test on HL-60 is 0.261 µM (active); in the test with K562, 3.92 µM (inactive); with MOLT-4 it was 2.96 µM (inactive); in the test with 786-0, 2.04 µM (inactive); in the test on U-251, 2.58 µM (inactive); with UACC-62, 2.91 µM (inactive). In addition, the GI50 in the test with PC-3 was 5.85 µM (inactive); in the test on Hs-578T it was 4.18 µM (inactive).
As to `CC1(C#N)CC(C)(C)C(/C=C2/CC(C)(C)C(/C=C3/OC(=N)CC3(C)C)=N2)=N1` (stereo not given), the GI50 was 22.9 µM (inactive) in the test on OVCAR-8; 31 µM (inactive) in the test on TK-10; 62.2 µM (inactive) with SF-539; 32.7 µM (inactive) in the test with SNB-19; 31.9 µM (inactive) in the test with SN12C; 40.6 µM (inactive) in the test on NCI-H226. For the same compound, the GI50 with HOP-92 is 12 µM (inactive); with T47D it was 22.7 µM (inactive); in the test on Malme-3M it was 0.564 µM (active); with NCI-H460, 15.8 µM (inactive); in the test with A549, 29.5 µM (inactive); in the test on ACHN, 21.3 µM (inactive). In addition, the GI50 with HL-60 was 21.9 µM (inactive); in the test with K562, 22.5 µM (inactive); in the test with MOLT-4 it was 28.7 µM (inactive); with 786-0, 24.9 µM (inactive); with U-251, 38.5 µM (inactive); with UACC-62, 20.7 µM (inactive). The GI50 with PC-3 was 30.6 µM (inactive); with Hs-578T, 19.2 µM (inactive).
With `CC(=O)N(C(=O)CC(=O)N/N=C\c1ccc(Br)c(N(CCC#N)CCC#N)c1)c1ccc(Cl)cc1`, the GI50 in the test on OVCAR-8 is 54.5 µM (inactive); with TK-10, 27.8 µM (inactive); with SF-539, 71.4 µM (inactive); in the test with SNB-19, 25.9 µM (inactive); in the test with SN12C, 7 µM (inactive); in the test with NCI-H226, 36.1 µM (inactive). Besides, the GI50 in the test with HOP-92 is 30.2 µM (inactive); with T47D it was 43.3 µM (inactive); with Malme-3M, 51.6 µM (inactive); with NCI-H460, 74.5 µM (inactive); with A549 it was 27.4 µM (inactive); in the test on ACHN, 14.5 µM (inactive). In addition, the GI50 in the test on HL-60 was 35.4 µM (inactive); in the test on K562, 60 µM (inactive); in the test with MOLT-4 it was 42.6 µM (inactive); with 786-0, 45.9 µM (inactive); with U-251 it was 46.3 µM (inactive); with UACC-62, 7.55 µM (inactive). For the same compound, the GI50 in the test on PC-3 is 96.6 µM (inactive); in the test with Hs-578T, 52.5 µM (inactive).
Take `O=C1CCCC1C(O)(C(F)(F)F)C(F)(F)F` (stereo not given): the GI50 with OVCAR-8, in the test with TK-10, in the test on SF-539, in the test on SNB-19, in the test on SN12C and in the test on NCI-H226 was > 100 µM (inactive) throughout. Moreover, the GI50 in the test on HOP-92, with T47D, in the test with Malme-3M, with NCI-H460, in the test with A549 and with ACHN was > 100 µM (inactive) in each case. The GI50 with HL-60, in the test on K562, in the test with MOLT-4, in the test on 786-0, with U-251 and in the test with UACC-62 was > 100 µM (inactive) throughout. Besides, the GI50 in the test on PC-3 and in the test with Hs-578T was > 100 µM (inactive) in each case.
For `Clc1ccc(Cc2nc3ccccc3nc2-c2cccc(Cl)c2)cc1`, the GI50 was 3.56 µM (inactive) with OVCAR-8; 12.3 µM (inactive) in the test on TK-10; 2.25 µM (inactive) with SF-539; 1.8 µM (inactive) in the test with SNB-19; 2.94 µM (inactive) with SN12C; 20.3 µM (inactive) in the test on NCI-H226. In addition, the GI50 was 1.7 µM (inactive) in the test with HOP-92; 3.35 µM (inactive) with T47D; 2.25 µM (inactive) with Malme-3M; 16.3 µM (inactive) in the test with NCI-H460; 15.6 µM (inactive) in the test with A549; 1.93 µM (inactive) with ACHN. Moreover, the GI50 was 2.51 µM (inactive) in the test on HL-60; 1.94 µM (inactive) with K562; 2.06 µM (inactive) in the test with MOLT-4; 1.84 µM (inactive) in the test with 786-0; 4.68 µM (inactive) in the test on U-251; 1.86 µM (inactive) in the test with UACC-62. Further, the GI50 was 2.26 µM (inactive) in the test with PC-3 and 3.47 µM (inactive) in the test on Hs-578T.
